Assay results reported in PubChem BioAssay (NCI).
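GI50 marks 50% less growth. TGI: concentration producing complete growth inhibition.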

Legend:
Assay in all cases: inhibition of tumour cell growth, NCI panel, 384-well format
[1] = test system: M14 melanoma
[2] = test system: RPMI-8226 leukemia
[3] = test system: T-47D breast
[4] = test system: SF-268 CNS
[5] = test system: HOP-92 NSCLC
[6] = test system: HT29 colon
[7] = test system: OVCAR-3 ovarian
[8] = test system: MOLT-4 leukemia
[9] = test system: SF-295 CNS
[10] = test system: RXF 393 renal
[11] = test system: SK-OV-3 ovarian
[12] = test system: SK-MEL-5 melanoma
[13] = test system: SNB-75 CNS
[14] = test system: SR leukemia
[15] = test system: U251 glioblastoma
[16] = test system: K-562 leukemia
[17] = test system: NCI-H322M lung
[18] = test system: LOX IMVI melanoma
[19] = test system: EKVX NSCLC
[20] = test system: MDA-MB-435 melanoma
[21] = test system: HCT-15 colon
[22] = test system: MCF7 breast
[23] = test system: A498 renal
[24] = test system: BT-549 breast
[25] = test system: SK-MEL-28 melanoma
[26] = test system: HS 578T breast
[27] = test system: NCI-H460 NSCLC
[28] = test system: COLO 205 colon
[29] = test system: SN12C renal
[30] = test system: A549 NSCLC
[31] = test system: OVCAR-5 ovarian
[32] = test system: MALME-3M melanoma
[33] = test system: NCI/ADR-RES ovarian
[34] = test system: NCI-H23 lung
[35] = test system: UACC-62 melanoma
[36] = test system: PC-3 prostate
[37] = test system: SNB-19 CNS
[38] = test system: MDA-MB-468 breast
[39] = test system: HCC-2998 colon
[40] = test system: MDA-MB-231 breast
[41] = test system: TK-10 renal
[42] = test system: HOP-62 NSCLC
[43] = test system: KM12 colon
[44] = test system: OVCAR-4 ovarian
[45] = test system: NCI-H522 lung
[46] = test system: SF-539 CNS
[47] = test system: IGROV1 ovarian
[48] = test system: OVCAR-8 ovarian
[49] = test system: ACHN renal
[50] = test system: DU-145 prostate
[51] = test system: UO-31 renal
[52] = test system: CCRF-CEM leukemia
[53] = test system: CAKI-1 renal
[54] = test system: NCI-H226 lung
[55] = test system: 786-0 renal
[56] = test system: SW-620 colon

CC(C)(C(=O)NCC(F)(F)C(F)(F)F)C(=O)N[C@@H]1C(=O)Nc2ccccc2-c2ccccc21
GI50 [1]: 89.2 µM
TGI [1]: > 100 µM
GI50 [2]: 18.8 µM
TGI [2]: 76.4 µM
GI50 [3]: 6.31 µM
TGI [3]: 48.1 µM
GI50 [4]: > 100 µM
TGI [4]: > 100 µM
GI50 [5]: 32.5 µM
TGI [5]: > 100 µM
GI50 [6]: 37.2 µM
TGI [6]: > 100 µM
GI50 [7]: 36.3 µM
TGI [7]: > 100 µM
GI50 [8]: 11.5 µM
TGI [8]: 25.6 µM
GI50 [9]: 52.5 µM
TGI [9]: > 100 µM
GI50 [10]: 27.3 µM
TGI [10]: > 100 µM
GI50 [11]: 90.8 µM
TGI [11]: > 100 µM
GI50 [12]: 39.1 µM
TGI [12]: > 100 µM
GI50 [13]: 63.6 µM
TGI [13]: > 100 µM
GI50 [14]: 23.3 µM
TGI [14]: > 100 µM
GI50 [15]: > 100 µM
TGI [15]: > 100 µM
GI50 [16]: 44.8 µM
TGI [16]: > 100 µM
GI50 [17]: > 100 µM
TGI [17]: > 100 µM
GI50 [18]: > 100 µM
TGI [18]: > 100 µM
GI50 [19]: 29 µM
TGI [19]: > 100 µM
GI50 [20]: 92.7 µM
TGI [20]: > 100 µM
GI50 [21]: 43.3 µM
TGI [21]: > 100 µM
GI50 [22]: 22 µM
TGI [22]: > 100 µM
GI50 [23]: 47 µM
TGI [23]: > 100 µM
GI50 [24]: 39.2 µM
TGI [24]: > 100 µM
GI50 [25]: 46.9 µM
TGI [25]: > 100 µM
GI50 [26]: 32 µM
TGI [26]: > 100 µM
GI50 [27]: 46 µM
TGI [27]: > 100 µM
GI50 [28]: 44.6 µM
TGI [28]: > 100 µM
GI50 [29]: > 100 µM
TGI [29]: > 100 µM
GI50 [30]: 33.6 µM
TGI [30]: > 100 µM
GI50 [31]: > 100 µM
TGI [31]: > 100 µM
GI50 [32]: 22.2 µM
TGI [32]: > 100 µM
GI50 [33]: 30 µM
TGI [33]: > 100 µM
GI50 [34]: 41.1 µM
TGI [34]: > 100 µM
GI50 [35]: 20.4 µM
TGI [35]: > 100 µM
GI50 [36]: 41.2 µM
TGI [36]: > 100 µM
GI50 [37]: 63.5 µM
TGI [37]: > 100 µM
TGI [38]: 33.3 µM
GI50 [39]: 24 µM
TGI [39]: > 100 µM
GI50 [40]: 51.2 µM
TGI [40]: > 100 µM
GI50 [41]: 88.7 µM
TGI [41]: > 100 µM
GI50 [42]: 74.6 µM
TGI [42]: > 100 µM
GI50 [43]: 53.2 µM
TGI [43]: > 100 µM
GI50 [44]: 17.5 µM
TGI [44]: 76.3 µM
GI50 [45]: 42.4 µM
TGI [45]: > 100 µM
GI50 [46]: > 100 µM
TGI [46]: > 100 µM
GI50 [47]: 92.1 µM
TGI [47]: > 100 µM
GI50 [48]: 69.9 µM
TGI [48]: > 100 µM
GI50 [49]: 54.8 µM
TGI [49]: > 100 µM
GI50 [50]: 55.9 µM
TGI [50]: > 100 µM
GI50 [51]: 74.6 µM
TGI [51]: > 100 µM
GI50 [52]: 18.6 µM
TGI [52]: 69.8 µM
GI50 [53]: > 100 µM
TGI [53]: > 100 µM
GI50 [54]: 45.8 µM
TGI [54]: > 100 µM
GI50 [55]: 58.5 µM
TGI [55]: > 100 µM
GI50 [56]: > 100 µM
TGI [56]: > 100 µM
